Marks after values point to notes of the source that are not given here.
What was measured:
[1] = Stability in cell culture medium (DMEM) at 37 °C by 1H NMR; type: physicochemical; settings: DMEM-d (6.6 % CD3OD)
Procedure: Next, the stability of the diiron compounds in a cell culture medium (DMEM) solution at 37 °C, over a shorter time range (24 h), was assessed by ^1H NMR.
Stability in water (D2O) and cell culture medium. The procedures are described in the Supporting Information, and data are collected in Table S3.
Table S3. Stability of diiron complexes in D2O, D2O/CD3OD, DMSO-d6/D2O and cell culture medium (DMEM-
d/CD3OD) solution at 37 °C calculated by 1H NMR (Me2SO2 internal standard).
% starting material (72 h) % starting material
Compound D O D O/CD OD DMSO-d /D O DMEM-d
[a] X = I for the stability in D 2O, X = CF3SO3 for the stability in cell culture medium. [b] Stability in D 2O and […]

[2] = target: T1, Lysozyme from chicken egg white (Gallus gallus, UniProt P00698); assay: Reactivity with model protein lysozyme, ESI-MS; settings: 37 °C; for % Lysozyme methylation (alkylation): lysozyme:compound 1 : 2 molar ratio, 24 h, flow injection ESI-MS peak integrals; for Reaction with lysozyme: compound/lysozyme 2 : 1, 24 h
T1 construct: Lysozyme from chicken egg white (M=14 300 Da, 62971 Sigma‐Aldrich); purchased Sigma-Aldrich 62971; host or cells: chicken egg white (natural source)
T1 sequence (P00698 19-147): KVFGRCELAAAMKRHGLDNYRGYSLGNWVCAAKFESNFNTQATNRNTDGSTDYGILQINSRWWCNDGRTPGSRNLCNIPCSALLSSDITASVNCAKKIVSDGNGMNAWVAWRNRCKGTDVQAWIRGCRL
Procedure: To gain insights into the reactivity of the diiron compounds with possible biomolecular targets, we selected lysozyme, a small model protein often used to test interactions with metal compounds.[36] Following 24 h incubation at 37 °C, diiron compounds/lysozyme solutions (2 : 1 molar ratio) in ammonium acetate were filtered and analysed by ESI‐MS. In all cases, the original organometallic cation was identified as the major Fe‐containing compound in solution (Figures S33‐S40). Concerning the protein scaffold, the only identified adduct from the interaction with [2–3]^+ was the methylated derivative, which was also checked by HPLC separation (Figure S41). The expected diiron counterparts, that is, 1A–H, could not be detected possibly due to their water insolubility. The [lysozyme+Me^+] to [lysozyme] ratios, calculated on extracted ion chromatograms after protein peak reconstruction, are reported in Table 4. […] Methylation is a common post‐translational modification of protein/enzymes (methyltransferase enzymes) but it has also been observed as a result of the interaction of proteins with various electrophiles.[37]
Lysozyme from chicken egg white (M=14 300 Da, 62971 Sigma‐Aldrich) was stored at 4 °C as received. A stock solution was prepared by dissolving the powder protein (125 μM) and NH4OAc (1.25×10^−2 M)[56] in HPLC water and was immediately used. Stock solutions of diiron complexes (c Fe2 =1×10^−3 M) were prepared by dissolving the selected compound in DMSO (0.25 mL) or MeOH (0.7 mL; used only for [4G]BF4), then diluting with HPLC water up to 5.0 mL total volume. Next, aliquots of the Fe (0.50 mL) and lysozyme (2.0 mL) stock solutions were mixed and the final solution (Fe2 200 μM, lysozyme 100 μM, NH4OAc 10 mM; 1 % DMSO) was kept at 37 °C for 24 h. The resulting suspensions were centrifuged (RCF 805, 5 min; Hettich EBA 8G) to separate the orange‐brown precipitate. A blank solution (lysozyme only) was prepared and treated by the same procedure. Next, samples were diluted 1 : 20 (v/v) with a water/MeCN (1 : 1, v/v) solution containing 1 % formic acid and analysed by HPLC‐MS and flow injection MS. For HPLC analyses, elution was conducted with a MeCN/water linear gradient (90 : 10 to 5 : 95 v/v over 60 min), containing 0.05 % trifluoroacetic acid. The following compounds were identified by their MS pattern: [2A]^+ (t R=18.0 min), [2B]^+ (t R=13.8 min), [2C]^+ (t R=18.8 min), [2D]^+ (t R=17.0 min), [2E]^+ (t R=18.3 min), [2F]^+ (t R=9.7 min), [3F]^+ (t R=13.1 min), [4G]^+ (t R=23.0 min), [5H]^+ (t R=24.3 min), lysozyme‐CH3 (t R=21.0 min), lysozyme (t R=21.6 min). In all cases, the starting organometallic cation was identified as the major Fe‐containing compound in solution. Protein peaks pattern were obtained following peak reconstruction. Peak integrals for lysozyme and methyl lysozyme were calculated from the extracted ion chromatograms from the flow injection MS analysis (Table 4).

[3] = Solubility pattern of the isolated compound (qualitative); type: physicochemical; settings: isolated solid
[4] = Octanol/water partition coefficient, shake-flask method and UV/Vis; settings: octanol/water, 21 °C
Procedure: Octanol/water partition coefficients (log Pow ). Partition coefficients (P ow; IUPAC: K D partition constant[53]), defined as P ow=corg/caq, where corg and caq are molar concentrations of the selected compound in the organic and aqueous phase, respectively, were determined by the shake‐flask method and UV/Vis measurements.[[16a], [54]] Deionized water and octan‐1‐ol were vigorously stirred for 24 h, to enable saturation of both phases, then separated by centrifugation. A stock solution of the selected Fe compound (ca. 2 mg) was prepared by first adding acetone (50 μL, to help solubilization), followed by water‐saturated octanol (2.5 mL). The solution was diluted with water‐saturated octanol (ca. 1 : 3 v/v ratio, cFe2 ≈10^−4 M, so that 1.5≤A≤2.0 at λ max) and its UV/Vis spectrum was recorded ( A0/org ). An aliquot of the solution (V org=1.2 mL) was transferred into a test tube and octanol‐saturated water (V org=V aq=1.2 mL) was added. The mixture was vigorously stirred for 30 min at 21 °C then centrifuged (RCF 805, 5 min; Hettich EBA 8G). The UV/Vis spectrum of the organic phase was recorded ( Af/org ) and the partition coefficient was calculated as P ow= Af/org /( A0/org g− Af/org ) where A0/org and Af/org are the absorbance in the organic phase before and after partition with the aqueous phase, respectively.[53] For [2B]BF4, [2C]Cl and [3F]CF3SO3 an inverse procedure was followed, starting from a solution of the compound in octanol‐saturated water. The partition coefficient was calculated as P ow=( A0/aq − Af/aq )/ Af/aq where A0/aq and Af/aq are the absorbance in the aqueous phase before and after partition with the organic phase, respectively.

| % starting material (24 h) [1] [%] | % Lysozyme methylation (alkylation) [2] | Solubility in water (qualitative) [3] | Log P ow [4] | Log P ow ([4]; listed as [5H]^+) | Reaction with lysozyme [2] | Log P ow ([4]; listed as [4G]^+) | Log P ow ([4]; listed as [2A]^+) | Substance |
| --- | --- | --- | --- | --- | --- | --- | --- | --- |
| 88 | 49% | soluble | – | – | – | – | – | [Fe2Cp2(CO)2(μ‐CO){μ‐CNMe(CH2PO3Et2)}]X [[2B]BF4] |
| – | 47% | soluble | −1.01±0.02 | – | – | – | – | [Fe2Cp2(CO)2(μ‐CO){μ‐CNMe(CH2CHCH2)}]X [[3F]CF3SO3] |
| 86 | 45% | insoluble | 0.0±0.1 | – | – | – | ≈ 0 | [Fe2Cp2(CO)2(μ‐CO){μ‐CNMe(1H‐indol‐6‐yl)}]CF3SO3 [[2A]CF3SO3] |

Further lines, the substance ahead of its results:

| Substance | % starting material (24 h) [1] [%] | % Lysozyme methylation (alkylation) [2] | Solubility in water (qualitative) [3] | Log P ow [4] | Log P ow ([4]; listed as [5H]^+) | Reaction with lysozyme [2] | Log P ow ([4]; listed as [4G]^+) | Log P ow ([4]; listed as [2A]^+) |
| --- | --- | --- | --- | --- | --- | --- | --- | --- |
| [Fe2Cp2(CO)2(μ‐CO){μ‐CNMe(C6H11)}]X [[2C]CF3SO3] | 85 | 50% | less soluble | −0.46±0.02 | – | – | – | – |
| [Fe2Cp2(CO)2(μ‐CO){μ‐CNBn2}]X [[5H]CF3SO3] | 75 | 0 %^[b] | poorly soluble | 0.2±0.02 | ≈ 0 | did not react with lysozyme | – | – |
| [Fe2Cp2(CO)2(μ‐CO){μ‐CNEt(2‐naphthyl)}]BF4 [[4G]BF4] | 85 | 0 %^[b] | insoluble | 0.1±0.1 | – | did not react with lysozyme | ≈ 0 | – |
| [Fe2Cp2(CO)2(μ‐CO){μ‐CNMe(4‐C6H4OMe)}]CF3SO3 [[2D]CF3SO3] | 77 | 31% | soluble | −0.25±0.04 | – | – | – | – |

— article PMC8362065, “Easily Available, Amphiphilic Diiron Cyclopentadienyl Complexes Exhibit in Vitro Anticancer Activity in 2D and 3D Human Cancer Cells through Redox Modulation Triggered by CO Release” (Chemistry (Weinheim an Der Bergstrasse, Germany), 2021)
